Experiments:
[1] = biological target: T1, Peroxisome proliferator-activated receptor alpha (Homo sapiens, UniProt Q07869)
T1 sequence (Q07869 whole entry): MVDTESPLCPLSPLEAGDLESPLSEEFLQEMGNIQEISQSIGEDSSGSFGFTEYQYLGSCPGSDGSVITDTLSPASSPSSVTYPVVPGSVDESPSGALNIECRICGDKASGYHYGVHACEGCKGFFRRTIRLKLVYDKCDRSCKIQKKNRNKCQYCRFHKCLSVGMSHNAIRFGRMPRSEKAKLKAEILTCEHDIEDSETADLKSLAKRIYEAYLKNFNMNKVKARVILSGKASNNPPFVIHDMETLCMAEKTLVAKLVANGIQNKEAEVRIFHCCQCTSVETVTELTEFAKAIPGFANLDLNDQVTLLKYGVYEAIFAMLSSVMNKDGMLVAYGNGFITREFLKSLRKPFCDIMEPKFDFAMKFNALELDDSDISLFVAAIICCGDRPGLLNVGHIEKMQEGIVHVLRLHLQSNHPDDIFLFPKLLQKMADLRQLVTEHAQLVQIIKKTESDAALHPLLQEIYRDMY
Description: Agonist activity at human PPARalpha in CV1 cells by GAL4 transactivation assay after 24 hrs

[2] = biological target: T2, Peroxisome proliferator-activated receptor gamma (Homo sapiens, UniProt P37231)
T2 sequence (P37231 whole entry): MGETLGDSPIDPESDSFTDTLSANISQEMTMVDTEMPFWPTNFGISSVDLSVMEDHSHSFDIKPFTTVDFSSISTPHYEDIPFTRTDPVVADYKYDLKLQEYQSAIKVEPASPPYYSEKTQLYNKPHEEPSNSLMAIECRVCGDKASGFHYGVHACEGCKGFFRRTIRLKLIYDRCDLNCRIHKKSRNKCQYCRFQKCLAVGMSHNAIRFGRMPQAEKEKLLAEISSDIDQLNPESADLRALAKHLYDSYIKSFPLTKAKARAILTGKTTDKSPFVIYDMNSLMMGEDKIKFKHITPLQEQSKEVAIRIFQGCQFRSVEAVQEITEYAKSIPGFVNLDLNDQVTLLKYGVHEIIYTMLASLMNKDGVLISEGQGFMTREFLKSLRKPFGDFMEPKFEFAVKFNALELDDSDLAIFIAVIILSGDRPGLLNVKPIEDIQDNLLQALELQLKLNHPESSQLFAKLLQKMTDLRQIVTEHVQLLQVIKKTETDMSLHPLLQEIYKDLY
Description: Agonist activity at human PPARgamma in CV1 cells by GAL4 transactivation assay after 24 hrs

| EC50 [1] [nM] | EC50 [2] [nM] | SMILES |
| --- | --- | --- |
| 20400 | 5390 | CCNC(=S)OC(CCc1ccc(C[C@H](OCC)C(=O)O)cc1)c1ccccc1 (some centres undefined) |
| 10700 | 1060 | CCO[C@@H](Cc1ccc(CCC(OC(=S)NCC2CCCCC2)c2ccccc2)cc1)C(=O)O (some centres undefined) |
| 6050 | 1420 | CCO[C@@H](Cc1ccc(CCC(OC(=O)NCc2ccccc2)c2ccccc2)cc1)C(=O)O (some centres undefined) |
| – | 350 | CCO[C@H](Cc1ccc(CCC(OC(=S)NCc2ccccc2)c2ccccc2)cc1)C(=O)O (some centres undefined) |
| 5250 | 4580 | CCO[C@@H](Cc1ccc(CCC(OC(=S)Nc2ccccc2)c2ccccc2)cc1)C(=O)O (some centres undefined) |
| 193000 | – | Cc1ccc(C)c(OCCCC(C)(C)C(=O)O)c1 [GEMFIBROZIL] |

The next lines start with the compound.

| SMILES | EC50 [1] [nM] | EC50 [2] [nM] |
| --- | --- | --- |
| CCO[C@@H](Cc1ccc(CCCOC(=S)NCc2ccccc2)cc1)C(=O)O | 1470 | 1400 |
| CCO[C@@H](Cc1ccc(OCC(OC(=S)NCc2ccccc2)c2ccccc2)cc1)C(=O)O (some centres undefined) | 6210 | 7170 |
| CCO[C@@H](Cc1ccc(CCC(OC(=S)NCCc2ccccc2)c2ccccc2)cc1)C(=O)O (some centres undefined) | 880 | 490 |
| CCO[C@@H](Cc1ccc(CCC(OC(=S)NCc2ccccc2)c2ccccc2)cc1)C(=O)O (some centres undefined) | – | 580 |
| CCO[C@H](Cc1ccc(CCC(OC(=S)NCCc2ccccc2)c2ccccc2)cc1)C(=O)O (some centres undefined) | 2770 | 1050 |
| CCCCNC(=S)OC(CCc1ccc(C[C@H](OCC)C(=O)O)cc1)c1ccccc1 (some centres undefined) | 7260 | 3600 |
| CCO[C@H](Cc1ccc(CCC(OC(=S)NCc2ccc(C(C)(C)C)cc2)c2ccccc2)cc1)C(=O)O (some centres undefined) | 380 | 140 |
| CCO[C@@H](Cc1ccc(CCC(O)c2ccccc2)cc1)C(=O)O (some centres undefined) | 1510 | 300 |
| CCO[C@@H](Cc1ccc(CCC(OC(=S)NCc2ccc(C(C)(C)C)cc2)c2ccccc2)cc1)C(=O)O (some centres undefined) | 3270 | 160 |
| CCCNC(=S)OC(CCc1ccc(C[C@H](OCC)C(=O)O)cc1)c1ccccc1 (some centres undefined) | 3940 | 3480 |

— ChEMBL document CHEMBL1148890, “Design, synthesis, and structure-activity relationship of carbamate-tethered aryl propanoic acids as novel PPARalpha/gamma dual agonists” (Bioorg Med Chem Lett, 2007)
